The test system of test [1] is Aβ1-40 secreted from HEK293 cells stably expressing wildtype human APP695 protein (HEK-APPwt cells); proteolytic activity of BACE. Kind of test: Aβ Cell Based Assay (Aβ1-40 secretion, ELISA). As to conditions: 6 hours incubation, reduction of Aβ1-40 secretion, asterisk = mean. Here is the method:
(§1) Aβ Cell Based Assay Procedure
(§2) In the following assay, the proteolytic activity of BACE in cells exposed to varying concentrations of a compound of interest is measured by observing the amount of Aβ1-40 secreted from HEK293 cells (Human Embryonic Kidney epithelial cell line) stably expressing wildtype human APP695 protein (HEK-APPwt cells).
(§3) HEK-APPwt cells were grown in high glucose DMEM (Dulbecco's Modified Eagles Medium SIGMA Cat. #D5796) supplemented with 25 mM HEPES (4-(2-hydroxyethyl)-1-piperazineethanesulfonic acid) (pH 7.4) (Invitrogen Cat. #15630-114), 0.1 mM NEAA (Non-essential Amino Acids) (BioWhittaker Cat. #13-114E), 10% fetal bovine serum (SIGMA Cat. #F4135) and 250 μg/mL hygromycin (Invitrogen Cat. #10687-010) in T-225 flasks at 37° C. with 5% CO2 and humidity control.
(§4) Test compounds were initially prepared in DMSO and diluted with DMEM media containing 2% FBS (Fetal bovine serum). Ten standard compound solutions were prepared having a range of concentrations. The standard compound solutions were used to determine the EC50 of the test compound. The range of concentrations chosen may depend on the compound's predicted potency.
(§5) To prepare cells for the assay, a flask containing HEK-APPwt cells were trypsinized briefly (1 mL trypsin), and once the cells detached, 4 mL of 10% FBS-DMEM was added to the flask. The detached cells were centrifuged at 900 rpm for 5 min to form a pellet.
(§6) The HEK-APPwt cell pellet was re-suspended with 10 mL DMEM media containing 2% FBS. 80 μL of the cell suspension was added to each well of a 96-well cell culture plate to give 100×10^4 cells/ml. 10 μL of a standard compound solution was added to each well of the 96-well cell culture plate followed by 10 μL of Alamar blue solution. The cells were incubated at 37° C. in a 5% CO2 incubator for 6 hours.
(§7) At the end of the incubation, the plates were removed from incubator, and the supernatant was collected. Aβ1-40 concentration in the medium was measured by using a commercial Aβ1-X ELISA kit (IBL, Japan Cat. #27729). Briefly, the ELISA plates were coated with an anti-human Aβ (N)(82E1) mouse IgG monoclonal antibody. A horseradish peroxidase conjugated anti-human Aβ11-28 mouse IgG monoclonal antibody was used for detection. The cell culture supernatant was diluted with EIA buffer+protease inhibitors (kit buffer containing protease inhibitors (1 mL PI/30 mL buffer)). A 100 μL aliquot of the diluted supernatant was added to each well of the ELISA plate and incubated for 6 hrs at 4° C. The ELISA plate was washed 8 times with phosphate buffered saline (PBS) containing 0.05% TWEEN 20.
(§8) A 100 μL of detection antibody was then added and incubated for 1 hour at 4° C. The plate was washed 8 times with PBS buffer containing 0.05% Tween 20 followed by addition of 100 μL of the chromogen tetramethylbenzidine (TMB). The plate was incubated in the dark at room temperature for about 30 min and a stop solution (1N H2SO4) was added.
(§9) The intensity of the color developed was measured at 450 nm. The optical density at 450 nm (OD450) is proportional to the concentration of human Aβ1-40 secreted by the cell. As a reference, N—[N-(3,5-difluorophenacetyl-L-alanyl)]—S-phenylglycine t-butyl ester (DAPT, a γ-secretase inhibitor) was used to indicate 100% inhibition of […]. Thus, the assay measures the ability of a compound of interest to reduce Aβ1-40 secretion. Compound potency is reported in Table 3 as the EC50 by calculating the percent inhibition at all concentration levels and the data were fit with non-linear curve fitting algorithm using GraphPad Prism.
Background: An ELISA detects its analyte on a solid surface through an enzyme-linked reagent.

The target in a further test is T1, BACE-1 enzyme (Homo sapiens, UniProt P56817).
T1 construct: purchased R & D Systems 931AS
Kind of test: BACE Fluorescence Resonance Energy Transfer (FRET) Assay. Format: biochemical. As to conditions: pH 4-4.5, 30 min pre-incubation, about 1.5 hours reaction, asterisk = mean. Summed up:
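BACE-1 enzyme pre-incubated 30 minutes with compound (7.5% DMSO) in 50 mM sodium acetate pH 4-4.5 with CHAPS, TritonX-100, EDTA. Rhodamine-quenched peptide substrate cleavage ran about 1.5 hours at room temperature; fluorescence read at 540/585 nm, giving IC50 or percent inhibition at one concentration.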

A short description of test [2]: Aβ Cell Based Assay (Aβ1-40 secretion, ELISA). Set-up: species or system human. As to conditions: Homo sapiens, HEK293; HEK-APPwt cells, 6 hours incubation, reduction of Aβ1-40 secretion; asterisk = mean. Here is the method: as §1, §2, §3, §4, §5, §6, §7, §8, §9

T1 sequence (P56817 46-457 limits assumed): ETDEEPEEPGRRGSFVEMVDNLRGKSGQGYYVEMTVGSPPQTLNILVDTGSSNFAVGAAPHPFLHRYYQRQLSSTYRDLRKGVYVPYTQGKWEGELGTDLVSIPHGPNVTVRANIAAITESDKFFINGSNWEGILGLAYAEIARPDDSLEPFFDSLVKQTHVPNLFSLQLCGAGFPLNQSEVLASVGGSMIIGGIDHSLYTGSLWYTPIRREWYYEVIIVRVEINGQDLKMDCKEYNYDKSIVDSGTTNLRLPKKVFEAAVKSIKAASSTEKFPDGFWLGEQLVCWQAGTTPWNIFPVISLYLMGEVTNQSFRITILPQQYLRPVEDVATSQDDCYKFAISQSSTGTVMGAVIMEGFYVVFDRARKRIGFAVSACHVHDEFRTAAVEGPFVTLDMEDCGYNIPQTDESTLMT

Take `O=C(Nc1nc2cc(-c3cccc(OC(F)(F)F)c3)ccc2[nH]1)c1cn2nc(OCCO)ccc2n1` [Example 143, 6-(2-Hydroxy-ethoxy)-imidazol[1,2-b]pyridazine-2-carboxylic acid [5-(3-trifluoromethoxy-phenyl)-1H-benzoimidazol-2-yl]-amide]: in test [1], the EC50 amounted to 1.07 µM. At BACE-1 enzyme, this compound registered an IC50 of 0.172 µM.
`C[C@H](C[C@@H](C)O)Oc1ccc2nc(C(=O)Nc3nc4cc(-c5cccc(C(F)(F)F)c5)ccc4[nH]3)cn2n1` [Example 120, 6-((1R,3R)-3-hydroxy-1-methyl-butoxy)-imidazo[1,2-b]pyridazine-2-carboxylic acid [5-(3-trifluoromethyl-phenyl)-1H-benzoimidazol-2-yl]-amide]: in test [2], the EC50 turned out to be 0.07 µM. The same compound returned an IC50 at BACE-1 enzyme of 0.455 µM.
Taken in the same sequence, the figures for `O=C(Nc1nc2cc(-c3cc(F)cc(Cl)c3)ccc2[nH]1)c1cn2nc(OC3COC4C(O)COC34)ccc2n1` (stereo not drawn) [Example 133] were 0.56 µM and 0.262 µM.
Taken in the same sequence, the figures for `CCC[C@@H](O)COc1ccc2nc(C(=O)Nc3nc4cc(-c5cc(F)cc(Cl)c5)ccc4[nH]3)cn2n1` [Example 124] were 0.3 µM and 0.419 µM.
Taken in the same sequence, the figures for `O=C(Nc1nc2cc(-c3cc(F)cc(Cl)c3)ccc2[nH]1)c1cn2nc(OCCN3CCCC3=O)ccc2n1` [Example 54] were 0.87 µM and 0.211 µM.
As to `O=C(Nc1nc2cc(-c3cccc(Cl)c3)ccc2[nH]1)c1cn2nc(OCCO)ccc2n1` [Example 144, 6-(2-hydroxy-ethoxy)-imidazo[1,2-b]pyridazine-2-carboxylic acid [5-(3-chloro-phenyl)-1H-benzoimidazol-2-yl]-amide], the EC50 in test [2] came to 0.94 µM. Also, at BACE-1 enzyme, the IC50 turned out to be 0.128 µM.
`O=C(Nc1nc2cc(-c3cccc(OC(F)(F)F)c3)ccc2[nH]1)c1cn2nc(OCCN3CCCCC3)ccc2n1` [Example 47]: the EC50 in test [2] came to 1.96 µM. The compound also returned an IC50 on BACE-1 enzyme of 0.24 µM.
Take `O=C(Nc1nc2cc(-c3cccc(C(F)(F)F)c3)ccc2[nH]1)c1cn2nc(OCCN3CCCCC3)ccc2n1` [Example 46]: the EC50 in test [2] was 3.81 µM. On BACE-1 enzyme, the IC50 was 0.248 µM.
As for `O=C(Nc1nc2cc(-c3cccc(OC(F)(F)F)c3)ccc2[nH]1)c1cn2nc(OCCn3cncn3)ccc2n1` [Example 29], the EC50 in test [2] worked out at 2.58 µM. The compound further showed an IC50 at BACE-1 enzyme of 0.314 µM.
The compound `C[C@H](O)CCOc1ccc2nc(C(=O)Nc3nc4cc(-c5cc(F)cc(Cl)c5)ccc4[nH]3)cn2n1` [Example 119] registered an EC50 in test [2] of 0.77 µM. The same compound yielded an IC50 against BACE-1 enzyme of 0.298 µM.
`O=C(Nc1nc2cc(-c3cccc(C(F)(F)F)c3)ccc2[nH]1)c1cn2nc(OCCN3CCNC3=O)ccc2n1` [Example 26] yielded an EC50 in test [2] of 1.41 µM. At BACE-1 enzyme, this compound returned an IC50 of 0.222 µM.
Turning to `O=C(Nc1nc2cc(-c3cc(F)cc(Cl)c3)ccc2[nH]1)c1cn2nc(N3CCC(O)CC3)ccc2n1` [Example 142, 6-(4-Hydroxy-piperidin-1-yl)-imidazo[1,2-b]pyridazine-2-carboxylic acid [5-(3-chloro-5-fluoro-phenyl)-1H-benzoimidazol-2-yl]-amide], the EC50 in test [2] worked out at 0.63 µM. Moreover, at BACE-1 enzyme, the IC50 came out at 0.134 µM.

One may read the IC50 as the concentration that gives 50% inhibition. A lower IC50 goes with greater potency.
